Source: ChEMBL document CHEMBL4312011, “Synthesis and biological evaluation of triterpenoid thiazoles derived from betulonic acid, dihydrobetulonic acid, and ursonic acid” (Eur J Med Chem, 2020)
Converted amounts (≈) assume the structure as drawn. The source made the active and inactive calls. No cut-off for these calls is given here.

Legend:
[1] = test system: CCRF-CEM; assay: Induction of apoptosis in human CCRF-CEM cells assessed as increase in BAX expression at 5 times IC50 concentration measured after 24 hrs by Western blot analysis; type: functional, cell-based
[2] = Chemical stability of compound in PBS buffer assessed as parent compound remaining at 2 uM at pH 7.4 and 37 degC incubated for 60 mins by RF-MS analysis; type: physicochemical; conditions: read-out: Stability
[3] = test system: CCRF-CEM; assay: Induction of apoptosis in human CCRF-CEM cells assessed as necrotic cells at 5 times IC50 concentration measured after 24 hrs by AnnexinV-FITC/propidium iodide staining based flow cytometry analysis (reference value: 0.1 %); type: functional
[4] = test system: CCRF-CEM; assay: Cell cycle arrest in human CCRF-CEM cells assessed as decrease in proportion of cells in S phase at 5 times IC50 measured after 24 hrs by propidium iodide/RNase staining based flow cytometry analysis; type: functional
[5] = test system: CCRF-CEM; assay: Induction of apoptosis in human CCRF-CEM cells assessed as decrease in Bcl-2 expression at 5 times IC50 concentration measured after 24 hrs by Western blot analysis; type: functional, cell-based
[6] = Stability in human plasma assessed as parent compound remaining at 2 uM incubated for 120 mins by RF-MS analysis; type: ADME, cell-free; conditions: read-out: Stability
[7] = test system: CCRF-CEM; assay: Induction of apoptosis in human CCRF-CEM cells assessed as activation of procaspase 8 at 5 times IC50 concentration measured after 24 hrs by Western blot analysis; type: functional, cell-based
[8] = Stability in human plasma assessed as parent compound remaining at 2 uM incubated for 60 mins by RF-MS analysis; type: ADME, cell-free; conditions: read-out: Stability
[9] = test system: CCRF-CEM; assay: Induction of apoptosis in human CCRF-CEM cells assessed as late apoptotic cells at 5 times IC50 concentration measured after 24 hrs by AnnexinV-FITC/propidium iodide staining based flow cytometry analysis (reference value: 0.1 %); type: functional
[10] = test system: K562; assay: Cytotoxicity against human K562 cells incubated for 72 hrs by MTS assay; type: functional, cell-based; conditions: K562, 72 h
[11] = Chemical stability of compound in PBS buffer assessed as parent compound remaining at 2 uM at pH 7.4 and 37 degC incubated for 120 mins by RF-MS analysis; type: physicochemical; conditions: read-out: Stability
[12] = test system: CCRF-CEM; assay: Induction of apoptosis in human CCRF-CEM cells assessed as early apoptotic cells at 5 times IC50 concentration measured after 24 hrs by AnnexinV-FITC/propidium iodide staining based flow cytometry analysis (reference value: 2.8 %); type: functional
[13] = test system: CCRF-CEM; assay: Induction of apoptosis in human CCRF-CEM cells assessed as increase in caspase 3/7 activity using Ac-DEVD-AMC as substrate at 5 times IC50 concentration measured after 24 hrs by fluorescence assay; type: functional, cell-based
[14] = Stability in human plasma assessed as parent compound remaining at 2 uM incubated for 15 mins by RF-MS analysis; type: ADME, cell-free; conditions: read-out: Stability
[15] = Microsomal stability in human liver microsomes assessed as parent compound remaining at 2 uM incubated for 60 mins by RF-MS analysis; type: ADME, Microsome; conditions: read-out: Stability
[16] = Chemical stability of compound in PBS buffer assessed as parent compound remaining at 2 uM at pH 7.4 and 37 degC incubated for 15 mins by RF-MS analysis; type: physicochemical; conditions: read-out: Stability
[17] = test system: HCT-116; assay: Cytotoxicity against human HCT116 cells incubated for 72 hrs by MTS assay; type: functional, cell-based; conditions: HCT-116, 72 h
[18] = Chemical stability of compound in PBS buffer assessed as parent compound remaining at 2 uM at pH 7.4 and 37 degC incubated for 30 mins by RF-MS analysis; type: physicochemical; conditions: read-out: Stability
[19] = Microsomal stability in human liver microsomes assessed as parent compound remaining at 2 uM incubated for 30 mins by RF-MS analysis; type: ADME, Microsome; conditions: read-out: Stability
[20] = Cytotoxicity against human CEM-DNR-bulk cells incubated for 72 hrs by MTS assay; type: functional, cell-based
[21] = test system: CCRF-CEM; assay: Induction of mitochondrial membrane depolarization in human CCRF-CEM cells at 5 times IC50 measured after 24 hrs by JC-1 staining based flow cytometry analysis (reference value: 8.4 %); type: functional
[22] = Cytotoxicity against human K562-TAX cells incubated for 72 hrs by MTS assay; type: functional, cell-based
[23] = test system: A549; assay: Cytotoxicity against human A549 cells incubated for 72 hrs by MTS assay; type: functional, cell-based; conditions: A549, 72 h
[24] = test system: U2OS; assay: Cytotoxicity against human U2OS cells incubated for 72 hrs by MTS assay; type: functional, cell-based
[25] = test system: CCRF-CEM; assay: Induction of apoptosis in human CCRF-CEM cells assessed as viable cells at 5 times IC50 concentration measured after 24 hrs by AnnexinV-FITC/propidium iodide staining based flow cytometry analysis (reference value: 97 %); type: functional
[26] = Stability in human plasma assessed as parent compound remaining at 2 uM incubated for 30 mins by RF-MS analysis; type: ADME, cell-free; conditions: read-out: Stability
[27] = test system: HCT-116; assay: Cytotoxicity against p53 knockout human HCT116 cells incubated for 72 hrs by MTS assay; type: functional, cell-based; conditions: HCT-116, 72 h
[28] = test system: BJ; assay: Cytotoxicity against human BJ cells incubated for 72 hrs by MTS assay; type: cell-based
[29] = Permeability of compound in PBS buffer assessed as permeability coefficient at pH 7.4 incubated for 18 hrs by PAMPA based RF-MS analysis; type: ADME; conditions: pH 7.4, 18 h
[30] = test system: CCRF-CEM; assay: Cytotoxicity against human CCRF-CEM cells incubated for 72 hrs by MTS assay; type: functional, cell-based
[31] = Protein binding in human plasma at 10 uM measured after 4 hrs by rapid equilibrium dialysis; type: ADME, cell-free; conditions: read-out: PPB (converted)
[32] = test system: MRC5; assay: Cytotoxicity against human MRC5 cells incubated for 72 hrs by MTS assay; type: cell-based; conditions: MRC5, 72 h
[33] = test system: CCRF-CEM; assay: Cell cycle arrest in human CCRF-CEM cells assessed as increase in G2/M phase accumulation at 5 times IC50 measured after 24 hrs by propidium iodide/RNase staining based flow cytometry analysis; type: functional
[34] = Microsomal stability in human liver microsomes assessed as parent compound remaining at 2 uM incubated for 15 mins by RF-MS analysis; type: ADME, Microsome; conditions: read-out: Stability
[35] = Solubility of compound in 0.5 % DMSO in water by HPLC-MS analysis; type: physicochemical
[36] = Solubility of compound in 5 % DMSO in water by HPLC-MS analysis; type: physicochemical
[37] = Solubility of compound in 10 % DMSO in water by HPLC-MS analysis; type: physicochemical
[38] = test system: CCRF-CEM; assay: Induction of apoptosis in human CCRF-CEM cells assessed as activation of PARP cleavage at 5 times IC50 concentration measured after 24 hrs by Western blot analysis; type: functional, cell-based
[39] = test system: CCRF-CEM; assay: Induction of apoptosis in human CCRF-CEM cells assessed as activation of caspase 3 at 5 times IC50 concentration measured after 24 hrs by Western blot analysis; type: functional, cell-based
[40] = test system: CCRF-CEM; assay: Induction of apoptosis in human CCRF-CEM cells assessed as activation of caspase 7 at 5 times IC50 concentration measured after 24 hrs by Western blot analysis; type: functional, cell-based

| Compound | Activity [1] | remaining at 1 h, 2 µM [2] | Activity [3] | Activity [4] | Activity [5] | remaining at 2 h, 2 µM [6] | Activity [7] | remaining at 1 h, 2 µM [8] | Activity [9] | IC50 [10] | remaining at 2 h, 2 µM [11] | Activity [12] | Activity [13] | remaining at 0.25 h, 2 µM [14] | remaining at 1 h, 2 µM [15] | remaining at 0.25 h, 2 µM [16] | IC50 [17] | remaining at 0.5 h, 2 µM [18] | remaining at 0.5 h, 2 µM [19] | IC50 [20] | further results |
| --- | --- | --- | --- | --- | --- | --- | --- | --- | --- | --- | --- | --- | --- | --- | --- | --- | --- | --- | --- | --- | --- |
| CC(C)[C@@H]1CC[C@]2(C(=O)O)CC[C@]3(C)[C@H](CC[C@@H]4[C@@]5(C)Cc6sc(N)nc6C(C)(C)[C@@H]5CC[C@]43C)[C@@H]12 | Active | 80.4% | 0.1% | Active | Active | 99.9% | Active | 99.9% | 0.4% | 43.8 µM | 76.3% | 3.1% | Active | 99.3% | 90.8% | 99.3% | 32.4 µM | 96.1% | 93.4% | 27 µM | Activity [21]: 16.7%; IC50 [22]: 22.8 µM; IC50 [23]: 44.5 µM; IC50 [24]: 42.9 µM; Activity [25]: 96.4%; remaining at 0.5 h, 2 µM [26]: 99.6%; IC50 [27]: 47.2 µM; IC50 [28]: > 50 µM; log(permeability) [29]: -5.34; IC50 [30]: 4.5 µM; fraction unbound at 4 h, 10 µM [31]: 0.015; IC50 [32]: > 50 µM; Activity [33]: Active; remaining at 0.25 h, 2 µM [34]: 97.7% |
| CC1(C)CC[C@]2(C(=O)O)CC[C@]3(C)C(=CC[C@@H]4[C@@]5(C)Cc6sc(N)nc6C(C)(C)[C@@H]5CC[C@]43C)[C@@H]2C1 | Active | 74.8% | 0.1% | Active | Active | 99.1% | Active | 99.4% | 0.5% | > 50 µM | 74.9% | 12% | Active | 99.4% | 87.1% | 91.2% | 31 µM | 77% | 90% | 19.8 µM | solubility [35]: 27 µM (≈ 13.8 µg/mL); solubility [36]: 45 µM (≈ 23 µg/mL); Activity [21]: 23.4%; IC50 [22]: 18.9 µM; IC50 [23]: 47.7 µM; IC50 [24]: 28.8 µM; Activity [25]: 87.4%; remaining at 0.5 h, 2 µM [26]: 99.2%; IC50 [27]: 33.3 µM; IC50 [28]: > 50 µM; log(permeability) [29]: -7.16; IC50 [30]: 5.2 µM; fraction unbound at 4 h, 10 µM [31]: 0.011; IC50 [32]: > 50 µM; Activity [33]: Active; remaining at 0.25 h, 2 µM [34]: 96.8%; solubility [37]: 91 µM (≈ 46.5 µg/mL) |
| C=C(C)[C@@H]1CC[C@]2(C(=O)O)CC[C@]3(C)[C@H](CC[C@@H]4[C@@]5(C)Cc6sc(N)nc6C(C)(C)[C@@H]5CC[C@]43C)[C@@H]12 | Active | 90.8% | 0.8% | Active | Active | 97.7% | Active | 97.7% | 2.1% | > 50 µM | 86.9% | 20.2% | Active | 99.5% | 25.8% | 99.5% | 36.5 µM | 91.3% | 26% | 25.6 µM | solubility [35]: 26 µM (≈ 13.3 µg/mL); solubility [36]: 45 µM (≈ 23 µg/mL); Activity [21]: 62.2%; IC50 [22]: 17.4 µM; Activity [38]: Active; IC50 [23]: 38.4 µM; IC50 [24]: 48 µM; Activity [25]: 76.9%; remaining at 0.5 h, 2 µM [26]: 99.2%; IC50 [27]: 48.3 µM; IC50 [28]: > 50 µM; log(permeability) [29]: -5.34; IC50 [30]: 2.4 µM; fraction unbound at 4 h, 10 µM [31]: 0.042; Activity [39]: Active; Activity [40]: Active; IC50 [32]: > 50 µM; Activity [33]: Active; remaining at 0.25 h, 2 µM [34]: 31%; solubility [37]: 89 µM (≈ 45.5 µg/mL) |
